Source: paper PMC6514670, “Field-Based Affinity Optimization of a Novel Azabicyclohexane Scaffold HIV-1 Entry Inhibitor” (Molecules, 2019)

Tests used:
[1] = target: B41 SOSIP.664 gp140 trimer (Human immunodeficiency virus type 1, UniProt B3UES2, A505C/E513R/I563P/INS515RR/K514R/T609C); assay type: binding, HIV-1
[2] = test system: HIV-1B41 Env pseudotyped HIV-1; assay: Single-round infection assay, B41 Env pseudotyped virus; conditions: Human immunodeficiency virus 1, U87/CD4/CCR5, 48 h, read-out: IC50 B41
[3] = test system: HIV-1JRCSF Env pseudotyped HIV-1; assay: Single-round infection assay, JRCSF Env pseudotyped virus; conditions: Human immunodeficiency virus 1, U87/CD4/CCR5, 48 h, read-out: IC50 JRCSF
[4] = test system: HIV-1JRFL Env pseudotyped HIV-1; assay: Single-round infection assay, JRFL Env pseudotyped virus; conditions: Human immunodeficiency virus 1, U87/CD4/CCR5, 48 h, read-out: IC50 JRFL
[5] = test system: HIV-1B41, HIV-1HxBc2, HIV-1JRCSF, HIV-1JRFL, and HIV-1YU-2 Env pseudotyped HIV-1; assay: Single-round infection assay, summary over the five Env pseudotypes; conditions: Human immunodeficiency virus 1, read-out: Median IC50
[6] = Cellular toxicity (Cell Counting Kit-8); assay type: cell-based, Human; conditions: human, U87.CD4.CCR5/CXCR4 cells; 48 h, CCK-8, 0.1–1000 µM
Protocol: (§1) The viability of the U87.CD4.CCR5/CXCR4 cells was determined using the Cell Counting Kit-8 cell proliferation and cytotoxicity assay (Dojindo Molecular Technologies, Rockville, MD, USA) per the manufacturer’s instructions. U87.CD4.CCR5/CXCR4 cells (1.2 × 10^4 cells/well) were seeded in 96-well tissue culture plates (Olympus Plastics, San Diego, CA, USA). After 24 h, cells were treated with compound (0.1–1000 µM) or DMSO (Sigma) for 48 h at 37 °C. Subsequently, 10 µL of the CCK-8 solution was added to each well and incubated for 4 h at 37 °C. Following the 4 h incubation, the absorbance at 450 nm was measured in a Multiskan™ GO Microplate Spectrophotometer (Thermo Scientific). Untreated cells were used as a background control and 0.1% SDS treated cells were used as a positive control.

U87.CD4.CCR5/CXCR4 cells = assay: Cellular toxicity (Cell Counting Kit-8); assay type: cell-based, Human; conditions: CC50 / median IC50
Protocol: as §1

[7] = test system: HIV-1HxBc2 Env pseudotyped HIV-1; assay: Single-round infection assay, HxBc2 Env pseudotyped virus; conditions: Human immunodeficiency virus 1, U87.CD4.CXCR4, 48 h, read-out: IC50 HxBc2
[8] = test system: HIV-1YU-2 Env pseudotyped HIV-1; assay: Single-round infection assay, YU-2 Env pseudotyped virus; conditions: Human immunodeficiency virus 1, U87/CD4/CCR5, 48 h, read-out: IC50 YU-2

| Compound | ka [1] | kd [1] | IC50 [2] [nM] | IC50 [3] [nM] | IC50 [4] [nM] | IC50 [5] [nM] | CC50 at 48 h [6] [nM] | Therapeutic Index (CC50/IC50) (U87.CD4.CCR5/CXCR4 cells) | IC50 [7] [nM] | IC50 [8] [nM] | improvement in KD (affinity) in comparison to parental SC28 [1] [fold] | SPR surface saturation ([1]; 12.5 µM and 6.25 µM, 13000 RUs trimer immobilized, theoretical Rmax 41 RUs) | increase of ka parameter in comparison to SC28 ([1]; SPR) [factor] |
| --- | --- | --- | --- | --- | --- | --- | --- | --- | --- | --- | --- | --- | --- |
| COc1cnc(-n2cnc(C)n2)c2[nH]cc(C(=O)C(=O)N3CC4CN(C(=O)c5ccccc5)CC4C3)c12 (stereo not shown) [SC11] | 3.83 ± 1.12 × 10^3 M^−1s^−1 | 5.02 ± 2.67 × 10^−4 s^−1 | – | – | – | – | – | – | – | – | – | – | – |
| COc1cnc(-n2cnc(C)n2)c2[nH]cc(C(=O)C(=O)N3CC(CCC(=O)c4ccccc4)C3)c12 [SC15] | 3.01 ± 0.188 × 10^5 M^−1s^−1 | 5.44 ± 0.677 × 10^−3 s^−1 | – | – | – | – | – | – | – | – | – | – | – |
| COc1cnc(-n2cnc(C)n2)c2[nH]cc(C(=O)C(=O)NC3C4CN(C(=O)c5ccccc5)CC43)c12 (stereo not shown) [SC28] | 1.39 ± 0.14 × 10^4 M^−1s^−1 | 6.99 ± 0.43 × 10^−3 s^−1 | 35 ± 6.2 | 26 ± 9 | 170 ± 50 | 150 ± 170 | 190000 ± 54000 | 1291.21 | 21 ± 5 | 480 ± 50 | – | – | – |
| COc1cnc(-n2cnc(C)n2)c2[nH]cc(C(=O)C(=O)N3CC=C(CNC(=O)c4ccccc4)CC3)c12 [SC45] | 1.38 ± 0.045 × 10^4 M^−1s^−1 | 1.52 ± 0.0294 × 10^−2 s^−1 | – | – | – | – | – | – | – | – | – | – | – |
| CNC(=O)c1ncc(OC)c2c(C(=O)C(=O)NC3C4CN(C(=O)c5ccccc5)CC43)c[nH]c12 (stereo not shown) [SC49] | 9.49 ± 1.6 × 10^2 M^−1s^−1 | 3.43 ± 0.36 × 10^−2 s^−1 | 26000 ± 19000 | – | 33300 ± 11600 | 45000 ± 15000 | 326000 ± 81000 | 7.31 | 62000 ± 1400 | 57200 ± 26500 | – | – | – |
| O=C(NC1C2CN(C(=O)c3ccccc3)CC21)C(=O)c1c[nH]c2c(-c3cccnc3)ncc(F)c12 (stereo not shown) [SC50] | – | – | 7100 ± 4200 | 28900 ± 5620 | 24300 ± 6200 | 18000 ± 9000 | 120000 ± 18000 | 6.63 | 6900 ± 5200 | 22600 ± 4200 | – | – | – |
| C=C(C(=O)NC1C2CN(C(=O)c3ccccc3)CC21)n1ccc2c(-n3cnc(C)n3)nc3ccnn3c21 (stereo not shown) [SC52, N-(3-benzoyl-3-azabicyclo[3.1.0]hexan-6-yl)-2-(5-(3-methyl-1H-1,2,4-triazol-1-yl)-8H-pyrazolo[1,5-a]pyrrolo[3,2-e]pyrimidin-8-yl)acrylamide] | – | – | 430 ± 100 | 2020 ± 250 | – | 1060 ± 668 | 9200 ± 1100 | 8.65 | 440 ± 170 | 1350 ± 440 | – | – | – |
| Nc1nc(-c2ccc(F)c3c(C(=O)C(=O)NC4C5CN(C(=O)c6ccccc6)CC54)c[nH]c23)no1 (stereo not shown) [SC55, 2-(7-(5-amino-1,2,4-oxadiazol-3-yl)-4-fluoro-1H-indol-3-yl)-N-(3-benzoyl-3-azabicyclo[3.1.0]hexan-6-yl)-2-oxoacetamide] | – | – | 2020 ± 810 | 450 ± 350 | 450 ± 330 | 960 ± 590 | 73000 ± 14000 | 75.85 | 730 ± 560 | 1150 ± 810 | – | – | – |
| COc1ccc(-c2noc(N)n2)c2[nH]cc(C(=O)C(=O)NC3C4CN(C(=O)c5ccccc5)CC43)c12 (stereo not shown) [SC56, 2-(7-(5-Amino-1,2,4-oxadiazol-3-yl)-4-methoxy-1H-indol-3-yl)-N-(3-benzoyl-3-azabicyclo[3.1.0]hexan-6-yl)-2-oxoacetamide] | 1.22 ± 0.067 × 10^7 M^−1s^−1 | 6.39 ± 0.31 × 10^−3 s^−1 | 51 ± 8 | 46 ± 9 | 130 ± 15 | 69.8 ± 45 | 94000 ± 10000 | 1344.71 | 11 ± 3 | 110 ± 49 | 1000 | saturate the surface | 1000 |
